Columns and labels:
Assay type in all cases: cell-based
[1] = system: organisms known to cause vascular access catheter-related infections; experiment: Antibacterial activity of anticancer agents
S. epidermidis C621 = experiment: MIC determination by microtitre broth dilution; conditions: S. epidermidis C621, wt, Gram+; Mueller Hinton broth, 37° C., 24 h
Method: (§1) A. MIC assay of various gram negative and positive bacteria MIC assays were conducted essentially as described by Amsterdam, D. 1996. Susceptibility testing of antimicrobials in liquid media, p. 52-111. In Loman, V., ed. Antibiotics in laboratory medicine, 4th ed. Williams and Wilkins, Baltimore, Md.

S. pyogenes C721 = experiment: MIC determination by microtitre broth dilution; conditions: S. pyogenes C721, wt, Gram+; Todd Hewitt broth, 37° C., 24 h
Method: as §1

[2] = system: K. pneumoniae ATCC13883 C238; experiment: MIC determination by microtitre broth dilution; conditions: for Minimum Inhibitory Concentrations: K. pneumoniae ATCC13883 C238, wt, Gram−, Mueller Hinton broth, 37° C., 24 h
Method: as §1

S. aureus ATCC25923 C622 = experiment: MIC determination by microtitre broth dilution; conditions: S. aureus ATCC25923 C622, wt, Gram+; Mueller Hinton broth, 37° C., 24 h
Method: as §1

[3] = system: P. aeruginosa PAE/K799 H187; experiment: MIC determination by microtitre broth dilution; conditions: for Minimum Inhibitory Concentrations: P. aeruginosa PAE/K799 H187, wt, Gram−, Mueller Hinton broth, 37° C., 24 h
Method: as §1

E. coli UB1005 C498 = experiment: MIC determination by microtitre broth dilution; conditions: for Minimum Inhibitory Concentrations: E. coli UB1005 C498, wt, Gram−, Mueller Hinton broth, 37° C., 24 h
Method: as §1

| Molecule | antibacterial activity against the organisms known to cause vascular access catheter-related infections [1] | Minimum Inhibitory Concentrations (S. epidermidis C621) | Minimum Inhibitory Concentrations (S. pyogenes C721) | Minimum Inhibitory Concentrations [2] | Minimum Inhibitory Concentrations (S. aureus ATCC25923 C622) | Minimum Inhibitory Concentrations [3] | Minimum Inhibitory Concentrations (E. coli UB1005 C498) | activity against Pseudomonas aeruginosa [3] | activity against Escheridia coli (E. coli UB1005 C498) | activity against Klebsiella pneumoniae [2] |
| --- | --- | --- | --- | --- | --- | --- | --- | --- | --- | --- |
| Nc1ccn([C@@H]2O[C@H](CO)[C@@H](O)[C@@H]2O)c(=O)n1 [Cytarabine] | did not have antibacterial activity | N | N | N | N | N | N | – | – | – |
| CC[C@@]1(O)C(=O)OCc2c1cc1n(c2=O)Cc2cc3ccccc3nc2-1 [camptothecin, Camptothecin] | did not have antibacterial activity | 10^−4 Molar | N | N | N | N | N | – | – | – |
| Sc1ncc2[nH]cnc2n1 [2-mercaptopurine] | did not have antibacterial activity | N | N | N | N | N | N | – | – | – |
| Cisplatin | did not have antibacterial activity | N | N | N | N | 10^−4 Molar | N | some activity | – | – |
| COc1cccc2c1C(=O)c1c(O)c3c(c(O)c1C2=O)C[C@@](O)(C(=O)CO)C[C@@H]3O[C@H]1C[C@H](N)[C@H](O)[C@H](C)O1 [doxorubicin, Doxorubicin] | – | 10^−6 Molar | 10^−7 Molar | 10^−6 Molar | 10^−5 Molar | 10^−5 Molar | 10^−4 Molar | have activity | have activity | – |
| O=c1[nH]cc(F)c(=O)[nH]1 [5-fluorouracil, 5-Fluorouracil] | – | 10^−7 Molar | 10^−4 Molar | 10^−6 Molar | 10^−7 Molar | 10^−5 Molar | 10^−6 Molar | have activity | have activity | – |
| Sc1ncnc2nc[nH]c12 [6-mercaptopurine] | did not have antibacterial activity | N | N | N | N | N | N | – | – | – |
| Nc1ncnc2c1ccn2[C@@H]1O[C@H](CO)[C@@H](O)[C@H]1O [tubercidin] | did not have antibacterial activity | N | N | N | N | N | N | – | – | – |
| NC(=O)NO [hydroxyurea] | did not have antibacterial activity | N | 10^−4 Molar | N | N | 10^−4 Molar | N | some activity | – | – |
| CC(=O)O[C@H]1C(=O)[C@@]2(C)[C@H]([C@H](OC(=O)c3ccccc3)[C@]3(O)C[C@H](OC(=O)[C@H](O)[C@@H](NC(=O)c4ccccc4)c4ccccc4)C(C)=C1C3(C)C)[C@]1(OC(C)=O)CO[C@@H]1C[C@@H]2O [paclitaxel] | did not have antibacterial activity | – | – | – | – | – | – | – | – | – |
| O=C1c2c(O)ccc(O)c2C(=O)c2c(NCCNCCO)ccc(NCCNCCO)c21 [mitoxantrone, Mitoxantrone] | – | 10^−5 Molar | 10^−6 Molar | 10^−6 Molar | 10^−5 Molar | 10^−5 Molar | 10^−5 Molar | have activity | have activity | – |
| CN(Cc1cnc2nc(N)nc(N)c2n1)c1ccc(C(=O)N[C@@H](CCC(=O)O)C(=O)O)cc1 [methotrexate, Methotrexate] | – | N | 10^−6 Molar | 10^−6 Molar | 10^−5 Molar | N | N | – | – | activity |
| COc1cc([C@@H]2c3cc4c(cc3[C@@H](O[C@@H]3O[C@@H]5CO[C@@H](C)O[C@H]5[C@H](O)[C@H]3O)[C@H]3COC(=O)[C@H]23)OCO4)cc(OC)c1O [etoposide, Etoposide] | – | 10^−6 Molar | 10^−5 Molar | 10^−5 Molar | 10^−5 Molar | N | N | – | – | – |

Reference: patent US8372420B2, “Compositions and methods for coating medical implants” (Angiotech International AG, priority 2002, dated 2013)
